Each structure is given as a SMILES string.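 Method: 48-hour compound exposure of cells in 96-well plates, five concentrations, linear interpolation of endpoints. GI50 = concentration required for 50% inhibition of growth.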 Active and inactive are the calls of the source. Cut-off read from the data, not from the text of the source: active = GI50 up to about 1.1 µM and inactive = higher.

The text below walks through data of ChEMBL document CHEMBL1201862, “PubChem BioAssay data set” (2004).

Among the test systems are SF-539; TK-10; UACC-257; SK-OV-3; OVCAR-8; LOX IMVI; DU-145; Malme-3M; T47D; SW-620; KM12; PC-3; OVCAR-4; SR; A498; MOLT-4; HOP-62; Hs-578T; DMS-114.
Common to all, as to experiment: growth of human tumour cells (NCI), 48 h

As to `CC(C)=CC[S+]([O-])c1ccccc1NC1=CC(=O)CC(C)(C)C1` (configuration not stated), the GI50 in the test with SF-539, with TK-10, in the test with UACC-257, in the test with SK-OV-3, in the test on OVCAR-8 and in the test with LOX IMVI was > 100 µM (inactive) in each case. The GI50 in the test on DU-145, in the test with Malme-3M, with T47D, in the test with SW-620, with KM12 and with PC-3 was > 100 µM (inactive) in each case. Further, the GI50 in the test on OVCAR-4 was > 100 µM (inactive); in the test with SR, > 100 µM (inactive); in the test on A498 it was > 100 µM (inactive); with MOLT-4, > 100 µM (inactive); in the test with HOP-62 it was 0.124 µM (active); with Hs-578T it was > 100 µM (inactive).

For the compound `Nc1nc(N)c2ncn(Cc3ccccc3CO)c2n1`, the GI50 in the test with SF-539, in the test on TK-10, in the test on UACC-257, in the test on SK-OV-3, in the test with OVCAR-8 and with LOX IMVI was > 100 µM (inactive) each time. Also, the GI50 in the test with DU-145, in the test on Malme-3M, in the test on T47D, in the test on SW-620, in the test on KM12 and in the test on PC-3 was > 100 µM (inactive) in each case. In addition, the GI50 with OVCAR-4, in the test on SR, in the test on A498, in the test on MOLT-4, in the test with HOP-62 and in the test on Hs-578T was > 100 µM (inactive) throughout.

As for `O=C(OC1C#CCSCC#C/C=C\1)c1ccc2c(c1)C(=O)c1ccccc1C2=O` (configuration not stated), the GI50 was 15.5 µM (inactive) with SF-539; 27.9 µM (inactive) in the test with TK-10; > 100 µM (inactive) with UACC-257; 18.1 µM (inactive) with SK-OV-3; 68.5 µM (inactive) in the test with OVCAR-8; > 100 µM (inactive) in the test on LOX IMVI. Moreover, the GI50 in the test on DU-145, in the test with Malme-3M, in the test on T47D, with SW-620, in the test with KM12 and in the test with PC-3 was > 100 µM (inactive) throughout. In addition, the GI50 in the test with OVCAR-4 was > 100 µM (inactive); in the test on SR it was 25.5 µM (inactive); in the test on A498, 33.3 µM (inactive); with MOLT-4, 81.7 µM (inactive); in the test on HOP-62 it was 16.5 µM (inactive); in the test with Hs-578T, 24.2 µM (inactive).

Take `CC(=O)N(C(C)=O)n1c(Cc2ccc(C)cc2)nn(C(C)=O)c1=O`: the GI50 with SF-539, in the test with TK-10, in the test on UACC-257, in the test on SK-OV-3, with OVCAR-8 and with LOX IMVI was > 100 µM (inactive) each time. Moreover, the GI50 in the test on DU-145, in the test with Malme-3M, in the test with T47D, in the test on SW-620, with KM12 and in the test with PC-3 was > 100 µM (inactive) each time. Further, the GI50 in the test on OVCAR-4, in the test on SR, with A498, in the test on MOLT-4, in the test with HOP-62 and in the test with Hs-578T was > 100 µM (inactive) in each case.

In the case of `CCOC(=O)c1ccc(/N=C2\SC(=S)N(c3ccc(F)cc3)\C2=N/c2ccc(C(=O)OCC)cc2)cc1`, the GI50 in the test with SF-539 was 20 µM (inactive); in the test on TK-10 it was 18.9 µM (inactive); with UACC-257, 15.2 µM (inactive); in the test on SK-OV-3, 86.9 µM (inactive); in the test on OVCAR-8 it was 7.53 µM (inactive); in the test with LOX IMVI it was 5.73 µM (inactive). Further, the GI50 was 39.2 µM (inactive) in the test with DU-145; 15.5 µM (inactive) with Malme-3M; 5.19 µM (inactive) in the test on T47D; 12.5 µM (inactive) in the test with SW-620; 24.8 µM (inactive) with KM12; 13.5 µM (inactive) in the test with PC-3. The GI50 in the test on OVCAR-4 was 12.1 µM (inactive); with SR it was 2.2 µM (inactive); in the test with A498 it was > 100 µM (inactive); with MOLT-4 it was 3.68 µM (inactive); in the test with HOP-62 it was > 58.7 µM (inactive); in the test with Hs-578T, 13.9 µM (inactive).

Consider `CC1CC2=C(C1)C(C1(C)C(=O)CC3C(C1=O)C3(C)C)C(C)C2=O` (configuration not stated), for which the GI50 in the test on SF-539, with TK-10, in the test with UACC-257, with SK-OV-3, in the test with OVCAR-8 and in the test with LOX IMVI was > 100 µM (inactive) throughout. Besides, the GI50 in the test on DU-145, with Malme-3M, in the test with T47D, in the test with SW-620, in the test on KM12 and in the test on PC-3 was > 100 µM (inactive) throughout. The GI50 in the test on OVCAR-4 was > 100 µM (inactive); in the test on SR, > 100 µM (inactive); in the test with A498, > 100 µM (inactive); with MOLT-4 it was 62.7 µM (inactive); with HOP-62 it was > 100 µM (inactive); in the test with Hs-578T, > 100 µM (inactive).

Take `COc1ccc2c(O)c1-c1c(OC)ccc(c1O)SSc1ccc(OC)c(c1O)-c1c(OC)ccc(c1O)SS2`: the GI50 with SF-539 was 4.45 µM (inactive); with TK-10, 65.8 µM (inactive); in the test on UACC-257, > 100 µM (inactive); with SK-OV-3, > 100 µM (inactive); with OVCAR-8 it was 32.9 µM (inactive); in the test with LOX IMVI, 26.7 µM (inactive). Besides, the GI50 in the test with DU-145 is 29 µM (inactive); in the test on Malme-3M, 51.2 µM (inactive); in the test on T47D it was 20.8 µM (inactive); in the test on SW-620, 16 µM (inactive); in the test on KM12, 37.2 µM (inactive); in the test with PC-3, 5.42 µM (inactive). Also, the GI50 in the test on OVCAR-4 is 12.1 µM (inactive); with SR it was 4.27 µM (inactive); in the test with A498, > 100 µM (inactive); in the test on MOLT-4 it was > 100 µM (inactive); in the test on HOP-62, > 100 µM (inactive); with Hs-578T it was 54.8 µM (inactive).

Take `CC1=C(Br)C(=O)c2c(O)ccc(O)c2C1=O`: the GI50 was 0.646 µM (active) in the test on SF-539; 1.26 µM (inactive) with TK-10; 1.13 µM (inactive) in the test with UACC-257; 1.85 µM (inactive) in the test with SK-OV-3; 0.481 µM (active) with OVCAR-8; 0.55 µM (active) in the test with LOX IMVI. Also, the GI50 is 1.52 µM (inactive) with DU-145; 0.295 µM (active) in the test on Malme-3M; 0.412 µM (active) in the test on T47D; 0.163 µM (active) in the test with SW-620; 1.57 µM (inactive) in the test with KM12; 1.41 µM (inactive) with PC-3. Moreover, the GI50 in the test with OVCAR-4 was 0.857 µM (active); with SR, 0.207 µM (active); in the test with A498, 1.7 µM (inactive); in the test on MOLT-4 it was 0.0258 µM (active); with HOP-62 it was 0.849 µM (active); in the test on Hs-578T, 2.81 µM (inactive).

On to `CC1CN=C(N(C)C(=O)Nc2ccc(Cl)cc2)S1` (configuration not stated), for which the GI50 in the test with SF-539 is 10.6 µM (inactive); in the test with TK-10, 29.1 µM (inactive); in the test with UACC-257 it was 11.5 µM (inactive); with SK-OV-3, 46 µM (inactive); with OVCAR-8, 45.7 µM (inactive); in the test on LOX IMVI, 20.2 µM (inactive). Also, the GI50 with DU-145 was 12.9 µM (inactive); in the test on Malme-3M, 53.1 µM (inactive); in the test with T47D it was 4.19 µM (inactive); in the test with SW-620, 20.4 µM (inactive); in the test on KM12 it was 4.72 µM (inactive); with PC-3 it was 15.7 µM (inactive). Besides, the GI50 was 65.2 µM (inactive) with OVCAR-4; 12.3 µM (inactive) in the test with SR; 40.1 µM (inactive) with A498; 14 µM (inactive) with MOLT-4; 48.2 µM (inactive) in the test on HOP-62; 25.5 µM (inactive) in the test on Hs-578T.

For `CC1=C(C(=O)Nc2ccccc2)C2(CCCCC2)C(C#N)=C(SCC(=O)Nc2ccc(Br)cc2)N1`, the GI50 in the test with SF-539 was 13.3 µM (inactive); in the test on TK-10, 6.58 µM (inactive); in the test on UACC-257, 7.28 µM (inactive); in the test on SK-OV-3 it was 8.79 µM (inactive); with OVCAR-8, 5.58 µM (inactive); with LOX IMVI, 3.43 µM (inactive). In addition, the GI50 in the test on DU-145 was 7.76 µM (inactive); in the test on Malme-3M it was 1.82 µM (inactive); in the test on T47D, 5.19 µM (inactive); in the test with SW-620, 5.43 µM (inactive); with KM12, 3.2 µM (inactive); with PC-3 it was 2.88 µM (inactive). Besides, the GI50 was 4.91 µM (inactive) in the test with OVCAR-4; 2.31 µM (inactive) with SR; 4.56 µM (inactive) in the test with A498; 2.82 µM (inactive) in the test with MOLT-4; 10.1 µM (inactive) with HOP-62; 3.57 µM (inactive) in the test on Hs-578T.

For the compound `CN(C)c1ccc(/C=C/C(=O)O)cc1`, the GI50 in the test with SF-539, in the test on UACC-257, in the test on SK-OV-3, in the test with OVCAR-8, in the test with LOX IMVI and in the test with Malme-3M was > 100 µM (inactive) each time. The GI50 in the test with SW-620, in the test on KM12, with DMS-114, in the test on A498, in the test with MOLT-4 and in the test with HOP-62 was > 100 µM (inactive) each time.
